Experimental data as given in patent US12539292B2, “BRM targeting compounds and associated methods of use” (Arvinas Operations, Inc., priority 2018, dated 2026).
Like-named read-outs stand apart in the source and are kept apart here.

Target: T1, BRM (Homo sapiens, UniProt P51531)
T1 construct: In-Cell Western Screen of BRM Degradation in SW1573 Cells; endogenous in cells; host or cells: SW1573
Test: In-cell Western screen of BRM degradation in SW1573 cells (Dmax and DC50)
Format: cell-based
How it was run: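 SW1573 cells were treated overnight (18-20 hours) with compound at 0.1% final DMSO. They were then PFA-fixed, permeabilised with Triton X-100 and immunostained with 800 nm/680 nm secondary antibodies. BRM signal was quantified by LI-COR in-cell Western imaging to derive Dmax and DC50.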

[1] = SW1573, % degraded, when tested at the top concentration of between 0.3 and 10 μM, read-out: BRM Dmax (%)
[2] = target protein degradation, read-out: BRM DC50
[3] = BRM degradation, SW1573 cells, Table 2D, read-out: *DC50
[4] = BRM degradation, SW1573 cells, read-out: DC50

T1 sequence (P51531 whole entry): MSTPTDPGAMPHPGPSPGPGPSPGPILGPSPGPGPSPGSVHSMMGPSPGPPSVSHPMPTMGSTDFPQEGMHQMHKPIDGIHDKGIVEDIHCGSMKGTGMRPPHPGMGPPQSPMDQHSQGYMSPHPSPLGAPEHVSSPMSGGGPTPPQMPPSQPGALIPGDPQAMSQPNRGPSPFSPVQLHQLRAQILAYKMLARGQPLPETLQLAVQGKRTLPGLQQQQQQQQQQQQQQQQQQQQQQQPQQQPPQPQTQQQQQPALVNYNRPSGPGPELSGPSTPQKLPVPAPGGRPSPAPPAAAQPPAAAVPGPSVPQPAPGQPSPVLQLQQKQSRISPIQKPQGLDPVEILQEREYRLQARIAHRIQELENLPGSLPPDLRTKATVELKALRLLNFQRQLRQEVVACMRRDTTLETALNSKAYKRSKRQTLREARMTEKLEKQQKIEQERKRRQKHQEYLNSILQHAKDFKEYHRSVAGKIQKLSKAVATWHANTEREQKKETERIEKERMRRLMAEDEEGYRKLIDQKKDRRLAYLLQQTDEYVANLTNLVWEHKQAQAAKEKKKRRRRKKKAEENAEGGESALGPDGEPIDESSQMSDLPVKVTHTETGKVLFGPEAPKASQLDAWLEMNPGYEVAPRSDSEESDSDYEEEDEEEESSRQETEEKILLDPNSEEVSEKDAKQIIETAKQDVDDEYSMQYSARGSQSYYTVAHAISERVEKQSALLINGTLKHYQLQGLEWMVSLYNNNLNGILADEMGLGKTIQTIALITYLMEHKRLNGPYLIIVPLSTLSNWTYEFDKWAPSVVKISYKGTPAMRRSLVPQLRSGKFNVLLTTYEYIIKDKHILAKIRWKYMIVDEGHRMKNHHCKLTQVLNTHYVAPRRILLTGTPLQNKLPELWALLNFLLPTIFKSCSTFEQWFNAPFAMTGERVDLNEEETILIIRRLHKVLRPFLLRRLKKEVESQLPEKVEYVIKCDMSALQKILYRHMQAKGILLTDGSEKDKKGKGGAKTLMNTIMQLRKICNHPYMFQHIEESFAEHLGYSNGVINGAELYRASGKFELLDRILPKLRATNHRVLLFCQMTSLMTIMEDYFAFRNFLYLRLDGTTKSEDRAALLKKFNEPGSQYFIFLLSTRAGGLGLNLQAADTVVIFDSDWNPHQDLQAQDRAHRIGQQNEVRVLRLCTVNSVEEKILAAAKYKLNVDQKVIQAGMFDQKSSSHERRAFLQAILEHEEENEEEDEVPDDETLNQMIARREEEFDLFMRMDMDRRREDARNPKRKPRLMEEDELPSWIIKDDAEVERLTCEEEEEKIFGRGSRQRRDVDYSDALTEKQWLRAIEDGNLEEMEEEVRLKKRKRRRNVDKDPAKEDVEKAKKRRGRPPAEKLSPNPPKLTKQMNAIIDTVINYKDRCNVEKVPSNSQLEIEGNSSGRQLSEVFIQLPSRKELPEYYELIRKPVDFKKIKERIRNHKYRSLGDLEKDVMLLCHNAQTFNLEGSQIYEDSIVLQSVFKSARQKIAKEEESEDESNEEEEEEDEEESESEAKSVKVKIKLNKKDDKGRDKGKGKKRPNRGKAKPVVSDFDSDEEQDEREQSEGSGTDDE

SMILES: Cc1ncsc1-c1ccc([C@H](C)NC(=O)[C@@H]2C[C@@H](O)CN2C(=O)[C@@H](c2cc(OCCN[C@H]3CC[C@@H](O[C@H]4C[C@@H](Oc5cc(N6C7CCC6CN(c6cc(-c8ccccc8O)nnc6N)C7)ccn5)C4)CC3)no2)C(C)C)cn1 [compound 388, (2S,4R)-1-((2R)-2-(3-(2-(((1S,4S)-4-((1r,3S)-3-((4-(3-(3-amino-6-(2-hydroxyphenyl)pyridazin-4-yl)-3,8-diazabicyclo[3.2.1]octan-8-yl)pyridin-2-yl)oxy)cyclobutoxy)cyclohexyl)amino)ethoxy)isoxazol-5-yl)-3-methylbutanoyl)-4-hydroxy-N-((S)-1-(6-(4-methylthiazol-5-yl)pyridin-3-yl)ethyl)pyrrolidine-2-carboxamide]
- Dmax [1]: > 75%
- DC50 [2]: 2.5 to 10 nM

SMILES: Cc1ncsc1-c1ccc([C@H](C)NC(=O)[C@@H]2C[C@@H](O)CN2C(=O)[C@@H](c2cc(N3CCC(OC4CCN([C@H]5C[C@H](CN6CCOC7(CCN(c8cc(-c9ccccc9O)nnc8N)CC7)C6)C5)CC4)CC3)no2)C(C)C)cc1 [compound 616, (2S,4R)-1-((R)-2-(3-(4-((1-((1r,3R)-3-((9-(3-amino-6-(2-hydroxyphenyl)pyridazin-4-yl)-1-oxa-4,9-diazaspiro[5.5]undecan-4-yl)methyl)cyclobutyl)piperidin-4-yl)oxy)piperidin-1-yl)isoxazol-5-yl)-3-methylbutanoyl)-4-hydroxy-N-((S)-1-(4-(4-methylthiazol-5-yl)phenyl)ethyl)pyrrolidine-2-carboxamide]
- Dmax (BRM degradation, SW1573 cells, Table 2D, read-out: **Dmax (%) (% degraded)): > 75%
- DC50 [3]: < 2.5 nM

SMILES: Cc1ncsc1-c1ccc([C@@H](NC(=O)[C@@H]2C[C@@H](O)CN2C(=O)[C@H](c2cc(OCCN3CCN(CCOc4cc(N5C6CCC5CN(c5cc(-c7ccccc7O)nnc5N)C6)ccn4)CC3)no2)C(C)C)C(F)F)cc1 [compound 173, (2S,4R)-1-((2S)-2-(3-(2-(4-(2-((4-(3-(3-amino-6-(2-hydroxyphenyl)pyridazin-4-yl)-3,8-diazabicyclo[3.2.1]octan-8-yl)pyridin-2-yl)oxy)ethyl)piperazin-1-yl)ethoxy)isoxazol-5-yl)-3-methylbutanoyl)-N-((R)-2,2-difluoro-1-(4-(4-methylthiazol-5-yl)phenyl)ethyl)-4-hydroxypyrrolidine-2-carboxamide]
- DC50 [4]: > 30 nM
- Dmax (BRM degradation, SW1573 cells, tested at the top concentration of between 0.3 and 10 μM, read-out: Dmax (%) (% degraded)): > 75%

SMILES: Cc1nccn1-c1ccc([C@H](C)NC(=O)[C@@H]2C[C@@H](O)CN2C(=O)[C@H](c2cc(N3CCC(CN4CCC(O[C@H]5C[C@H](C#C[C@@H](C)n6cc(-c7cc(-c8ccccc8O)nnc7N)cn6)C5)CC4)CC3)no2)C(C)C)cc1 (single isomer, unassigned) [compound 637]
- DC50 [4]: 2.5 to 10 nM
- Dmax (BRM degradation, SW1573 cells, read-out: Dmax (% degraded)): > 75%

SMILES: Cc1ncsc1-c1ccc([C@H](C)NC(=O)[C@@H]2C[C@@H](O)CN2C(=O)[C@H](c2cc(OCC(F)(F)CN3CCC(O[C@H]4C[C@H](Oc5cc(N6C7CCC6CN(c6cc(-c8ccccc8O)nnc6N)C7)ccn5)C4)CC3)no2)C(C)C)cc1 [compound 483, (2S,4R)-1-((2S)-2-(3-(3-(4-((1r,3S)-3-((4-(3-(3-amino-6-(2-hydroxyphenyl)pyridazin-4-yl)-3,8-diazabicyclo[3.2.1]octan-8-yl)pyridin-2-yl)oxy)cyclobutoxy)piperidin-1-yl)-2,2-difluoropropoxy)isoxazol-5-yl)-3-methylbutanoyl)-4-hydroxy-N-((S)-1-(4-(4-methylthiazol-5-yl)phenyl)ethyl)pyrrolidine-2-carboxamide]
- DC50 [2]: > 30 nM

SMILES: CC(C)[C@H](C(=O)N1C[C@H](O)C[C@H]1C(=O)N[C@@H](C)c1ccc(-n2ccnc2N)cc1)c1cc(N2CCC(CN3CCC(O[C@H]4C[C@H](Oc5cc(N6C7CCC6CN(c6cc(-c8ccccc8O)nnc6N)C7)ccn5)C4)CC3)CC2)no1 [compound 620, (2S,4R)-N-((S)-1-(4-(2-amino-1H-imidazol-1-yl)phenyl)ethyl)-1-((2S)-2-(3-(4-((4-((1r,3r)-3-((4-(3-(3-amino-6-(2-hydroxyphenyl)pyridazin-4-yl)-3,8-diazabicyclo[3.2.1]octan-8-yl)pyridin-2-yl)oxy)cyclobutoxy)piperidin-1-yl)methyl)piperidin-1-yl)isoxazol-5-yl)-3-methylbutanoyl)-4-hydroxypyrrolidine-2-carboxamide]
- DC50 [3]: > 30 nM

SMILES: Cc1cnnn1-c1ccc([C@H](C)NC(=O)[C@@H]2C[C@@H](O)CN2C(=O)[C@H](c2cc(OCCN3CCN(CCOc4cc(N5C6CCC5CN(c5cc(-c7ccccc7O)nnc5N)C6)ccn4)CC3)no2)C(C)C)cc1 [compound 274, (2S,4R)-1-((2S)-2-(3-(2-(4-(2-((4-(3-(3-amino-6-(2-hydroxyphenyl)pyridazin-4-yl)-3,8-diazabicyclo[3.2.1]octan-8-yl)pyridin-2-yl)oxy)ethyl)piperazin-1-yl)ethoxy)isoxazol-5-yl)-3-methylbutanoyl)-4-hydroxy-N-((S)-1-(4-(5-methyl-1H-1,2,3-triazol-1-yl)phenyl)ethyl)pyrrolidine-2-carboxamide]
- DC50 [4]: > 30 nM

SMILES: Cc1ncsc1-c1ccc([C@@H](NC(=O)[C@@H]2C[C@@H](O)CN2C(=O)[C@@H](c2cc(OCCN3CCN(CCOc4cc(N5C6CCC5CN(c5cc(-c7ccccc7O)nnc5N)C6)ccn4)CC3)no2)C(C)C)C(F)F)cc1 [compound 102, (2S,4R)-1-((2R)-2-(3-(2-(4-(2-((4-(3-(3-amino-6-(2-hydroxyphenyl)pyridazin-4-yl)-3,8-diazabicyclo[3.2.1]octan-8-yl)pyridin-2-yl)oxy)ethyl)piperazin-1-yl)ethoxy)isoxazol-5-yl)-3-methylbutanoyl)-N-((R)-2,2-difluoro-1-(4-(4-methylthiazol-5-yl)phenyl)ethyl)-4-hydroxypyrrolidine-2-carboxamide]
- DC50 [4]: < 2.5 nM
- Dmax (BRM degradation, SW1573 cells, when tested at the top concentration of between 0.3 and 10 μM, read-out: Dmax (%) (% degraded)): > 75%

SMILES: Cc1ncsc1-c1ccc(CNC(=O)[C@@H]2C[C@@H](O)CN2C(=O)C(c2cc(OCC=Cc3ccc(OC4CC(Oc5cc(N6C7CC[C@@H]6CN(c6cc(-c8ccccc8O)nnc6N)C7)ccn5)C4)cn3)no2)C(C)C)cc1 (stereo partly drawn) [compound 56, (2S,4R)-1-(2-(3-((3-(5-((1r,3r)-3-((4-(3-(3-amino-6-(2-hydroxyphenyl)pyridazin-4-yl)-3,8-diazabicyclo[3.2.1]octan-8-yl)pyridin-2-yl)oxy)cyclobutoxy)pyridin-2-yl)allyl)oxy)isoxazol-5-yl)-3-methylbutanoyl)-4-hydroxy-N-(4-(4-methylthiazol-5-yl)benzyl)pyrrolidine-2-carboxamide]
- DC50 [4]: < 2.5 nM
- Dmax (%) (% degraded) (BRM degradation, SW1573 cells, when tested at the top concentration of between 0.3 and 10 μM): A (A > 75)

SMILES: Cc1ncsc1-c1ccc([C@H](C)NC(=O)[C@@H]2C[C@@H](O)CN2C(=O)[C@@H](c2cc(OCCN3CCC(O[C@H]4C[C@H](Oc5nccc(N6C7CCC6CN(c6cc(-c8ccccc8O)nnc6N)C7)n5)C4)CC3)no2)C(C)C)cc1 [compound 464, (2S,4R)-1-((2R)-2-(3-(2-(4-((1r,3R)-3-((4-(3-(3-amino-6-(2-hydroxyphenyl)pyridazin-4-yl)-3,8-diazabicyclo[3.2.1]octan-8-yl)pyrimidin-2-yl)oxy)cyclobutoxy)piperidin-1-yl)ethoxy)isoxazol-5-yl)-3-methylbutanoyl)-4-hydroxy-N-((S)-1-(4-(4-methylthiazol-5-yl)phenyl)ethyl)pyrrolidine-2-carboxamide]
- Dmax [1]: > 75%
- DC50 [2]: < 2.5 nM
